Laboratory results reported in ChEMBL document CHEMBL1155024, “Microbial transformation of cinobufagin by Syncephalastrum racemosum” (J Nat Prod, 2008).

Tested on: Bel-7402
Assay: Cytotoxicity against human Bel7402 cells by MTT assay
Assay type: functional, cell-based

Row | Compound | IC50
1 | CC(=O)O[C@H]1[C@H]2O[C@]23[C@@H]2[C@@H](O)C[C@@H]4C[C@@H](O)CC[C@]4(C)[C@H]2CC[C@]3(C)[C@H]1c1ccc(=O)oc1 | 540 nM
2 | CC(=O)O[C@H]1[C@H]2O[C@]23[C@@H]2CC[C@]4(O)C[C@@H](O)CC[C@]4(C)[C@H]2C[C@@H](O)[C@]3(C)[C@H]1c1ccc(=O)oc1 | 660 nM
3 | CC(=O)O[C@H]1[C@H]2O[C@]23[C@@H]2CC[C@@H]4C[C@@H](O)CC[C@]4(C)[C@H]2C[C@@H](O)[C@]3(C)[C@H]1c1ccc(=O)oc1 | 370 nM
4 | CC(=O)O[C@H]1[C@H]2O[C@]23[C@@H]2CC[C@@H]4C[C@@H](O)CC[C@]4(C)[C@H]2CC[C@]3(C)[C@H]1c1ccc(=O)oc1 [CINOBUFAGIN] | 100 nM
5 | CC(=O)O[C@H]1[C@H]2O[C@]23[C@@H]2CC[C@]4(O)C[C@@H](O)CC[C@]4(C)[C@H]2CC[C@]3(C)[C@H]1c1ccc(=O)oc1 [CINOBUFOTALIN] | 1210 nM
